Here are results for two compounds from publication PMC10931676 (International Journal of Molecular Sciences, 2024).

Read-outs that look alike come from different tables or passages of the source.

The data set can be described thus: Permeability and efflux ratio in Caco-2 cells. Format: in vitro ADME. Conditions: human; for recovery at 120 min, 10 µM: Caco-2, Caco-2, 10 µM. As to the method:
Human colon carcinoma (Caco-2) cells, which were obtained from Military Medical Research Institute, were maintained in Dulbecco’s modified Eagle’s medium. Caco-2 cells were seeded onto […] (PET) in 96-well Falcon insert systems at 2 × 10^5 cells/cm^2 for 21–28 days for confluent cell monolayer formation. […] Test compounds were diluted with the transport buffer (HBSS without BSA) from a 10 mM stock solution to a concentration of 10 µM and applied to the apical or basolateral side of the cell monolayer. Permeation of the test compounds in the direction from A to B or from B to A was determined in duplicate over a 120-min incubation at 37 °C and 5% CO2 with a relative humidity of 95%. In addition, the efflux ratio of each compound was also determined. Test and reference compounds were quantified by LC-MS/MS analysis based on the peak area ratio of analyte/IS. The apparent permeability coefficient Papp (cm/s) was calculated using the following equation:Papp = (dCr/dt) × Vr/(A × C0) where dCr/dt is the cumulative concentration of the compound in the receiver chamber as a function of time (S); Vr is the solution volume in the receiver chamber (0.1 mL on the apical side, 0.25 mL on the basolateral side); A is the surface area for the transport, i.e., 0.0804 cm^2 for the area of the monolayer; C0 is the initial concentration in the donor chamber. […] Cd and Cr are the final concentrations of transport compound in donor and receiver chambers, respectively. Cc is the compound concentration in the cell lysate solution. Vc is the volume of insert well (0.1 mL in this assay).
(Caco-2 monolayers are a common model of the intestinal barrier.)

The mark [1] stands for this setting: Caco-2, 10 µM, 120-min incubation, 37 °C.

The Papp A→B is the apparent permeability from the apical to the basolateral side of a cell layer. On to `CC(C)NCC(O)COc1cccc2ccccc12` (centres unmarked) [Propranolol], for which, under “read-out: Mean Recovery % A to B”, the recovery at 120 min, 10 µM turned out to be 81%. Also, under setting [1], the Papp A→B at 120 min, 10 µM was determined as 29.4 ×10⁻⁶ cm/s.

The term Papp B→A denotes the apparent permeability from the basolateral to the apical side of a cell layer. As for `C[C@H]1O[C@@H](O[C@H]2[C@@H](O)C[C@H](O[C@H]3[C@@H](O)C[C@H](O[C@H]4CC[C@@]5(C)[C@H](CC[C@@H]6[C@@H]5C[C@@H](O)[C@]5(C)[C@@H](C7=CC(=O)OC7)CC[C@]65O)C4)O[C@@H]3C)O[C@@H]2C)C[C@H](O)[C@@H]1O` [Digoxin], for the setting “read-out: Mean Recovery % B to A”, the recovery at 120 min, 10 µM is 95.3%. Further, under setting [1], the Papp A→B at 120 min, 10 µM was 0.65 ×10⁻⁶ cm/s and the apparent permeability from basolateral to apical (Papp B→A) at 120 min, 10 µM was 14.6 ×10⁻⁶ cm/s.
